Where a SMILES comes first, the peptide text is derived from it. [ ]: non-standard residue; d: D form. Nle = CCCC[C@H](N)C(=O)O
Legend:
Assay type in all cases: cell-based, human
Pan-Ras = test: Polyubiquitination of endogenous Pan-Ras in HEK293 cells with Gsk3β siRNA; conditions: siRNA knockdown, ALLN 12 hours (FIG. 1A)
Experimental: Full-length human H-Ras was isolated from a HEK293 cell cDNA library by PCR and then inserted into the pcDNA-3.1-myc vector using EcoRI and HindIII restriction sites. PcDNA3.1-Gsk3β-V5 was constructed in a similar method. HEK293 cells were transfected with vector/nonspecific siRNA, Gsk3β siRNA, or pcDNA3.1-Gsk3β-V5 together with pCS4-3xFlag-Ub for 24 hours and treated with the proteasome inhibitor ALLN for 12 hours. WCEs (whole cell extracts) were then immunoprecipitated (IP) with anti-Pan-Ras antibody to detect the polyubiquitinated H-Ras. WCEs were immunoblotted with antibodies to Gsk3β, Pan-Ras, Myc-H-Ras or α-tubulin. The siRNA sequences for Gsk3β NM_002093) were 5′-[…]-3′ (SEQ ID NO: 2) and 5′-[…]-3′ (SEQ ID NO: 3). The GFP siRNA used for the negative control was 5′-[…]-3′ (SEQ ID NO: 4) (synthesized by Samchully Pharmaceutical, Korea).

H-Ras [1] = test: H-Ras polyubiquitination in HEK293 cells with Gsk3β or Axin siRNA; conditions: siRNA knockdown, ALLN 12 hours (FIG. 1C)
Experimental: Next, HEK293 cells were transfected with vector/nonspecific siRNA, pSUPER-Axin siRNA, pCS2-MT-Axin, siGsk3β, and/or pcDNA3.1-Gsk3β-V5 together with pcDNA3.1-H-Ras and pCS4-3xFlag-Ub for 24 hours and then treated with ALLN for 12 hours. IP and immunoblotting were performed as described above.

[2] = system: phosphor-mimetic form of H-Ras; test: Immunoblot of phospho-mimetic H-Ras level in transfected HEK293 cells after ALLN; conditions: ALLN for 12 hours, immunoblot (FIG. 5A lower panels)
Experimental: The protein expression level of the phosphorylation mimetic mutant is too low to be detected due to the severe destabilization; therefore, the proteasomal inhibitor, ALLN was treated to check for the accumulation of phosphor-mimetic form of H-Ras.
HEK293 cells were transfected with pcDNA3.1-H-Ras, pcDNA3.1-H-Ras-T144E/T148E, or pcDNA3.1-H-Ras-T144D/T148D. For indicated cases, ALLN was also administered for 12 hours. WCEs were immunoblotted with anti-Myc or -α-tubulin antibody (FIG. 5A lower panels). Treatment with ALLN increased the level of phosphor-mimetic form of H-Ras.

[3] = system: polyubiquitin-conjugated K- and N-Ras proteins; test: IP/immunoblot of polyubiquitinated K- and N-Ras in transfected HEK293 cells after ALLN; conditions: ALLN treatment, IP with anti-Myc (FIG. 8A)
Experimental: To examine the possibility that K- and N-Ras proteins, similar to H-Ras, were subjected to polyubiquitination by proteasomal degradation, HEK293 cells were transfected with pcDNA3.1-H-Ras, pcDNA3.1-K-Ras, or pcDNA3.1-N-Ras with pCS4-3xFlag-Ub. Cells were treated with ALLN followed by IP with anti-Myc antibody and then immunoblotted with anti-Myc, -α-tubulin, or -Flag antibody. […] Therefore, we confirmed that H-, K-, N-Ras protein stability is regulated by polyubiquitin-dependent proteasomal degradation (FIG. 8A).

H-Ras [4] = test: IP/immunoblot of H-Ras polyubiquitination and β-TrCP interaction in HEK293 cells with Wnt3a
Experimental: HEK293 cells were transfected the pcDNA3.1-H-Ras, pcDNA3.1-H-Ras-T144E/T148E, or pcDNA3.1-H-Ras-T144A/T148A with vector, pcDNA3.1-Gsk3β-V5, and/or pcDNA3.1-Flag-β-TrCP, together with pCS4-3xHA-Ub, treated with ALLN for 12 hours and/or Wnt3a for 2 hours as indicated, and prepared for IP with anti-Myc antibody. IPs and WCEs were immunoblotted with anti-HA, -β-TrCP or -α-tubulin antibody.

Gsk3β siRNA: siRNA for Gsk3β: 5′-CACUGAUUAUACCUCUAGU-3′ and 5′-CACUGUAACAUAGUCCGAU-3′ (chemistry not given here)
levels of Pan-Ras polyubiquitination (Pan-Ras): decreased | H-Ras polyubiquitination (H-Ras [1]): decreased

CCCC[C@@H](C=O)NC(=O)[C@H](CC(C)C)NC(=O)[C@H](CC(C)C)NC(C)=O [ALLN] (Ac-Leu-Leu-[Nle]-aldehyde)
level of phosphor-mimetic form of H-Ras [2]: increased | accumulation of polyubiquitin-conjugated K- and N-Ras proteins [3]: accumulation of polyubiquitin-conjugated K- and N-Ras proteins

B1: Wnt3a: recombinant Wnt3a (protein, UniProt P56704 19-352, looked up)
Protein Wnt-3a: SYPIWWSLAVGPQYSSLGSQPILCASIPGLVPKQLRFCRNYVEIMPSVAEGIKIGIQECQHQFRGRRWNCTTVHDSLAIFGPVLDKATRESAFVHAIASAGVAFAVTRSCAEGTAAICGCSSRHQGSPGKGWKWGGCSEDIEFGGMVSREFADARENRPDARSAMNRHNNEAGRQAIASHMHLKCKCHGLSGSCEVKTCWWSQPDFRAIGDFLKDKYDSASEMVVEKHRESRGWVETLRPRYTYFKVPTERDLVYYEASPNFCEPNPETGSFGTRDRTCNVSSHGIDGCDLLCCGRGHNARAERRREKCRCVFHWCCYVSCQECTRVYDVHTCK
polyubiquitination of phospho-deficient form of H-Ras (H-Ras [4]; Wnt3a, T144A/T148A H-Ras): not affected | polyubiquitination and interaction with β-TrCP of Wt H-Ras increased by Gsk3β transfection (H-Ras [4]; recombinant Wnt3a for 2 hours, Wt H-Ras): blocked
